Reference: PubChem BioAssay AID1919007 (Molecular Pharmacology Branch, DTP, NCI, 2023)
Values joined by “and” are separate entries in the source; they are usually repeats but may differ in a detail not shown here. Equal values may be shown once.

Test system: A498 complex spheroids with HUVEC/MSC, growth
Assay: Anticancer human tumor A498 cell line growth inhibition [AhR];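 note: seven day exposure starting three days after spheroid seeding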;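 for viability, T/C: luminescence signal used as a surrogate for viable cells; luminescence viability scaled so 100% equals DMSO vehicle wells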
Conditions: for viability, T/C: stronger effect = lower value
Source text: Multicellular complex tumor spheroid response to aryl hydrocarbon receptor antagonists in combination with a variety of drugs and investigational agents in selected tumor cell lines
The current study was undertaken to assess response to aryl hydrocarbon receptor antagonists in combination with standard-of-care drugs and investigational agents in solid tumor complex spheroid models. Complex spheroids include a stromal component modeled by human endothelial cells (HUVEC) and fibroblasts modeled by human mesenchymal stem cells (MSCs). The concentration ranges selected for each drug and investigational agent were based upon clinically achievable concentrations if the clinical Cmax of the agent was known.
Compounds. The drugs and investigational agents: BAY 2416964 (NSC825713), GNF351 (NSC835774), CH-223191 (NSC835775), CPI-455 (NSC825282), aza-TdCyd (NSC777586), decitabine (NSC127716), belinostat (NSC758774), entinostat (NSC756642), pevonedistat (NSC761192), tazemetostat (NSC777109), talazoparib (NSC765396), olaparib (NSC753686), selinexor (NSC780203), nedisertib (M3814, NSC802822), bortezomib (NSC756655), venetoclax (NSC766270), doxorubicin (NSC123127), elimusertib (BAY189344, NSC800525), ceralasertib (AZD6738, NSC777638), TAK-243 (NSC785004), alisertib (NSC759677), etoposide (NSC141540), topotecan (NSC609699), eribulin (NSC707389), gemcitabine (NSC613327), carboplatin (NSC241240), cisplatin (NSC119875), and SN-38 (NSC673596) were obtained from the National Cancer Institute (NCI) Developmental Therapeutics Program Chemical Repository (32). The FDA-approved anticancer drug set is available from the Developmental Therapeutics Program at https://dtp.cancer.gov/organization/dscb/obtaining/available plates.htm. […] The stock solutions were prepared in dimethyl sulfoxide (DMSO, Sigma-Aldrich, St. Louis, MO, cat. D2650), except for the platinum compounds which were prepared in saline (Quality Biological, Gaithersburg, MD, cat. 114-055-101), at 800-fold the tested concentration and stored at -70 degrees C prior to their use. All drugs and investigational agents were tested over a range starting from a high concentration at or near the clinical Cmax and decreasing in half-log increments. If the clinical Cmax for an agent had not been determined, the highest concentration tested was 10 microM (Table 1).
Cell Culture. All cells were maintained in an incubator at 37 degrees C and 5% CO2 with 95% humidity. The PDC lines were cultured according to standard operating procedures established by the NCI PDMR (https://pdmr.cancer.gov). Briefly, all PDCs were thawed and cultured in Matrigel-coated flasks prepared with a working solution of 1X Ham's F-12 nutrient mix, without supplementation (Invitrogen, Waltham, MA, cat. 11765054), 100 U/mL penicillin-streptomycin (Invitrogen, cat. 15140122), and 2.5% Matrigel (Corning Inc., Corning, NY, cat. 354248) for the first three passages. All PDCs were cultured in complete DMEM/F-12 media containing advanced DMEM/F-12 (Invitrogen, cat. 12634028), 4.9% defined fetal bovine serum, heat inactivated (HyClone Laboratories Inc., Logan, UT, cat. SH30070.03HI), 389 ng/mL hydrocortisone (Sigma-Aldrich, cat. H4001), 9.7 ng/mL human EGF recombinant protein (Invitrogen, cat. PHG0313), 23.4 microg/mL adenine (Sigma-Aldrich, cat. A2786), 97.3 U/mL penicillin-streptomycin (Invitrogen, cat. 15140122), 1.9 mM L-glutamine (Invitrogen, cat. 25030081), and 9.7 microM Y-27632 dihydrochloride (Tocris Bioscience, Bristol, United Kingdom, cat. 1254). The PDCs were cultured in complete DMEM/F12 media without 10 microM Y-27632 dihydrochloride for at least two passages prior to the screen. The established cell lines NCI-H1341 and […] were cultured in DMEM/F-12, HEPES (Invitrogen, cat. 11330032), 5% defined fetal bovine serum (HyClone Laboratories Inc., cat. SH30070.03), ITS premix universal culture supplement [insulin (5 microg/mL), transferrin (5 microg/mL), and selenious acid (5 ng/mL)] […]

SMILES: O=C(C=Cc1cccc(S(=O)(=O)Nc2ccccc2)c1)NO + CC(CO)NC(=O)c1cc(-c2ccc(Cl)cc2)nn(-c2cnn(C)c2)c1=O
- IC50 (curve of first compound, second compound 0.1 µM): 812 nM
- IC50 (curve of first compound, second compound 0.316 µM): 719 nM
- IC50 (curve of first compound, second compound 1 µM): 704 nM
- IC50 (curve of first compound, second compound 3.16 µM): 612 nM
- IC50 (curve of first compound, second compound 10 µM): 298 nM
- viability, T/C (second compound 0.1 µM, first compound 0.0316 µM): 82.8%
- viability, T/C (second compound 0.1 µM, first compound 0.1 µM): 79.2%
- viability, T/C (second compound 0.1 µM, first compound 0.316 µM): 63.6%
- viability, T/C (second compound 0.1 µM, first compound 1 µM): 42.5%
- viability, T/C (second compound 0.1 µM, first compound 3.16 µM): 32.6%
- viability, T/C (second compound 0.1 µM, first compound 10 µM): 9.53%
- viability, T/C (second compound 0.316 µM, first compound 0.0316 µM): 80.2%
- viability, T/C (second compound 0.316 µM, first compound 0.1 µM): 74.3%
- viability, T/C (second compound 0.316 µM, first compound 0.316 µM): 64.5%
- viability, T/C (second compound 0.316 µM, first compound 1 µM): 39.4%
- viability, T/C (second compound 0.316 µM, first compound 3.16 µM): 31.9%
- viability, T/C (second compound 0.316 µM, first compound 10 µM): 9.41%
- viability, T/C (second compound 1 µM, first compound 0.0316 µM): 80.5%
- viability, T/C (second compound 1 µM, first compound 0.1 µM): 80.8%
- viability, T/C (second compound 1 µM, first compound 0.316 µM): 61%
- viability, T/C (second compound 1 µM, first compound 1 µM): 42.2%
- viability, T/C (second compound 1 µM, first compound 3.16 µM): 28.1%
- viability, T/C (second compound 1 µM, first compound 10 µM): 9.7%
- viability, T/C (second compound 3.16 µM, first compound 0.0316 µM): 73.1%
- viability, T/C (second compound 3.16 µM, first compound 0.1 µM): 72.8%
- viability, T/C (second compound 3.16 µM, first compound 0.316 µM): 58.6%
- viability, T/C (second compound 3.16 µM, first compound 1 µM): 39.6%
- viability, T/C (second compound 3.16 µM, first compound 3.16 µM): 28.8%
- viability, T/C (second compound 3.16 µM, first compound 10 µM): 6.66%
- viability, T/C (second compound 10 µM, first compound 0.0316 µM): 67%
- viability, T/C (second compound 10 µM, first compound 0.1 µM): 56.6%
- viability, T/C (second compound 10 µM, first compound 0.316 µM): 53.8%
- viability, T/C (second compound 10 µM, first compound 1 µM): 33.7%
- viability, T/C (second compound 10 µM, first compound 3.16 µM): 25.6%
- viability, T/C (second compound 10 µM, first compound 10 µM): 6.56%

SMILES: Nc1ncn(C2CC(O)C(CO)O2)c(=O)n1 (configuration not stated)
- viability, T/C (compound 0.00316 µM): 95.4% and 108% and 105%
- viability, T/C (compound 0.01 µM): 101% and 108% and 107%
- viability, T/C (compound 0.0316 µM): 94% and 91.7% and 104%
- viability, T/C (compound 0.1 µM): 87.1% and 96.7% and 97.3%
- viability, T/C (compound 0.316 µM): 97.1% and 81.1% and 97.3%
- viability, T/C (compound 1 µM): 72.5% and 71.4% and 83.5%
- IC50 (curve of compound): > 1000 nM
